Test results taken from US8591902B2, “Antibody binding to lysophosphatidylglucoside, and composition comprising the same” (Riken, priority 2010, dated 2013).

Assays:
[1] = tested on: growth cone of an NGF-dependent neuron (TrkA neuron); assay: In vitro growth cone turning assay, NGF-supplemented medium; type: cell-based, chicken; details: for change in axon extension direction in response to concentration gradient: NGF-supplemented medium, TrkA neuron, lysophospholipid 10 μM in pipette, 45 minutes
From the text: (§1) The method described in T. Tojima et al., Nat Neurosci 10, 58-66 (January, 2007) was somewhat modified and employed to perform a primary culture of isolated DRG sensory nerves. Specifically, a chicken embryo at HH St. 29 was separated from the eggshell and decapitated. The body was transferred to ice-cooled PBS. Organs were removed from the obtained body with forceps, and the spine was exposed by ventral laminectomy. DRGs were isolated from the thoracic or lumbosacral spinal cord, broken into pieces fine watchmaker's forceps, and transferred into an L15 medium on ice. The DRG obtained by the dissection was treated with trypsin at 37° C. for 20 minutes, followed by centrifugation at 100 g for 1 minute. A minimum amount of an L15 medium was added to the pellets thus obtained, and the cells were manually suspended (repeated manual trituration). The cell suspension was again centrifuged at 100 g for 1 minute, and the supernatant was removed. Subsequently, the pellets were resuspended in a Leibovitz's L15 medium supplemented with N-2 (manufactured by Invitrogen Corp.), 750 μg/ml of BSA (manufactured by GIBCO), and 25 ng/ml of NGF or 50 ng/ml of NT-3 (manufactured by Sigma-Aldrich Corporation). The cells were seeded on glass dishes precoated with mouse-derived laminin (manufactured by Invitrogen Corp.) at […] such that the cell count would be 10,000 per dish. The dishes were placed in a culturing environment of 5% CO2 at 37° C. for approximately 2 hours before used in a growth cone turning assay.
The in vitro growth cone turning assay was conducted according to the methods described in M. Lohof, M. Quillan, Y. Dan, M. M. Poo, J Neurosci 12, 1253-61 (April, 1992), J. Q. Zheng, M. M. Poo, J. A. Connor, Perspect Dev Neurobiol 4, 205-13 (1996), and Y. Xiang et al., Nat Neurosci 5, 843-8 (September, 2002), which were somewhat modified. Specifically, lysophosphatidylcholine (manufactured by Sigma-Aldrich Corporation) or Lyso-PtdGlc prepared by a method described later was diluted with a vehicle (1% (v/v) methanol/PBS) such that the concentration would be 10 μM. […]

[2] = tested on: growth cone of an NT-3-dependent neuron (TrkC neuron); assay: In vitro growth cone turning assay, NT-3-supplemented medium; type: cell-based, chicken; details: lysophospholipid 10 μM in pipette, 45 minutes
From the text: as §1, with “The dishes were placed in a culturing environment of 5% CO2 at 37° C. for approximately 2 hours before used in a growth cone turning assay.” left out

Compound	change in axon extension direction in response to concentration gradient [1]	change in axon extension direction in response to concentration gradient [2]	chemorepellent effect on growth cone turning ([1]; in the presence of 50 μg/ml anti-Lyso-PtdGlc antibody)
CCCCCCCCCCCCCCCCCC(=O)OCC(O)COP(=O)(O)O[C@@H]1OC(CO)[C@@H](O)C(O)C1O (some centres unmarked) [Lyso-PtdGlc, lysophosphatidylglucoside]	changed its extension direction	no significant change	–
Lysophosphatidic acid [LPA]	–	–	strong chemorepellent effect
Lysophosphatidylcholine [LPC]	no significant influence	no significant influence	–
